Results reported in US9546151B2, “VMAT inhibitory compounds” (Oregon Health & Science University, priority 2014, dated 2017).
Where two headings read alike, the source gives them in different places. Each block holds one compound with its values, some of them ahead of it.

Experiments:
[1] = biological target: T1, human 5HT2A receptor (Homo sapiens, UniProt P28223); assay: h5HT2A receptors: [125I]DOI binding
T1 construct: expressed in transfected cells; host or cells: HEK cells
Description: Method: Human embryonic kidney cells expressing the human 5HT2A receptor (HEK-h5HT2A) or human 5HT2C receptor (HEK-h5HT2C) were used. The cells were grown until confluent on 15 cm plates. Media was removed, cells were washed with phosphate-buffered saline (PBS), scraped into 2 ml PBS and frozen at −20° C. until needed. Cell suspension was thawed, 10 ml assay buffer (50 mM Tris, pH 7.4 at 37° C., with 0.1% ascorbic acid and 5 mM CaCl2) was added per plate of cells, and polytronned at setting 6 for 5 sec. The homogenate was centrifuged at 15,500 rpm for 20 min. […] The final pellet was resuspended in 2 ml buffer/plate of cells.
The reaction was incubated for 1 hour at 37° C., and terminated by filtration through Wallac A filtermats presoaked in 0.05% polyethylenimine using a Tomtec 96-well harvester. Radioactivity remaining on filters was counted in a Wallac betaplate reader. IC50 values were calculated using GraphPad Prism. IC50 values were converted using the Cheng-Prusoff equation.

[2] = biological target: T2, VMAT2 (Homo sapiens, UniProt Q05940); assay: hVMAT2 5HT Uptake; type: biochemical; set-up: expressed in transfected cells; host or cells: HEK (human embryonic kidney) cells
T2 sequence (Q05940 whole entry): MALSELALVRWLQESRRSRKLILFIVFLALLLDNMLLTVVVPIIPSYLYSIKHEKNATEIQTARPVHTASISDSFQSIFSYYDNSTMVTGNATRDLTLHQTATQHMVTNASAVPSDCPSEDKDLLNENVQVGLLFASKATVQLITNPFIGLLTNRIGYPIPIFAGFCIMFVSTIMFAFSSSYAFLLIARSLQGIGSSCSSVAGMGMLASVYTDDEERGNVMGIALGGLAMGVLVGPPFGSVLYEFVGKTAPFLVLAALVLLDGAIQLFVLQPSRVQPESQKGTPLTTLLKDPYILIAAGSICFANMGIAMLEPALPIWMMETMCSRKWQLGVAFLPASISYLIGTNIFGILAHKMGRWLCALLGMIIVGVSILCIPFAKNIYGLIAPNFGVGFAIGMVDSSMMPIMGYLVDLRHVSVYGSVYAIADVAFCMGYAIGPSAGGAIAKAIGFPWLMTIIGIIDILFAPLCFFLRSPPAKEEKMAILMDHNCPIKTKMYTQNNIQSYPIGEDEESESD
Description: (§1) Membrane preparation for binding, uptake and release assays using HEK-hVMAT2 cells: Human embryonic kidney cells expressing the human vesicular monoamine transporter 2 (HEK-hVMAT2) were used. HEK-hVMAT2 cells were grown until confluent. The media was removed from plates, solution A [sucrose (0.32 M) with protease inhibitors] was added to the plate, and cells were scraped from plate. Cells were homogenized with 12 strokes of a glass/glass homogenizer. The homogenate was centrifuged at 800×g for 10 min. The supernatant was removed and saved, and the pellet was resuspended, homogenized and centrifuged as above. The supernatants were combined and centrifuged at 10,000×g for 20 min. The pellet was resuspended in solution A (0.75 ml). The membranes were osmotically shocked by addition of 2.625 ml ice cold water and homogenized by 5 strokes of a glass/Teflon homogenizer. The osmolarity was reestablished with addition of Tris (338 μl, 0.25M, pH 7.4 at 4° C.), sodium potassium tartrate (338 μl, 1.0 M), and MgSO4 (4 μl, 0.9M). The homogenate was centrifuged at 20,000×g for 20 min.

[3] = biological target: T2, VMAT2; assay: hVMAT2 [3H]DTBZ ([3H]DHTB) binding assay; set-up: expressed in transfected cells; host or cells: HEK (human embryonic kidney) cells
Description: as §1
Binding was terminated by filtration over Whatman GF/C filters using a Tomtec 96-well cell harvester. Filters were washed for six seconds with ice-cold saline. Scintillation fluid was added to each square and radioactivity remaining on the filters was determined using a Wallac μ- or beta-plate reader. Specific binding was defined as the difference in binding observed in the presence and absence of Ro4-1284 (10 μM, generously supplied by Hoffman LaRoche). Three or more independent competition experiments were conducted with duplicate determinations.

[4] = biological target: T3, human 5HT1A receptor (Homo sapiens, UniProt P08908); assay: h5HT1A receptors: [3H]8-OH-DPAT binding; conditions: read-out: 5-HT1A [^3H] 8—OH DPAT Ki(nM) ± SEM
T3 construct: expressed in transfected cells; host or cells: HEK cells (G418 selection)
T3 sequence (P08908 1-422): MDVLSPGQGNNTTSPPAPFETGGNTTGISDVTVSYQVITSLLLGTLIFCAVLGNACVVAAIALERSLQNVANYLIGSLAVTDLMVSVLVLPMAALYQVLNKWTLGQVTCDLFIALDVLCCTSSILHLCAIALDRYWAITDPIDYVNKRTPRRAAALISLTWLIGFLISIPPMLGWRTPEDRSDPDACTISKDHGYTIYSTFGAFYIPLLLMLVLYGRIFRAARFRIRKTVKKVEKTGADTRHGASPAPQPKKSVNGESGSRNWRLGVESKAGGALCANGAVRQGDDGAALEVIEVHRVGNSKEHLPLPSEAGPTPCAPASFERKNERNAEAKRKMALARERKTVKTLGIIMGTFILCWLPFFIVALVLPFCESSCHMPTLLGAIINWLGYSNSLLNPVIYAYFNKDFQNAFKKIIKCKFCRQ
Description: Human embryonic kidney cells expressing the human 5HT1A receptor (HEK-h5HT1A) were used. The cells were grown to confluence in DMEM containing 10% FetalClone® (abbreviated as FC—source: HyClone), 0.05% penicillin-streptomycin (pen-strep), and 300 μg/mL of Geneticin (G418). The cells were scraped from 150 mm plates into phosphate-buffered saline and centrifuged at 270×g, 1200 rpm, for 10 minutes. The cell pellet was homogenized in 50 mM Tris-HCl (pH 7.7) with a Polytron, and centrifuged at 27,000×g. […] The final pellet was resuspended at 0.5 mg protein/mL in assay buffer (25 mM Tris-HCl, pH 7.4, containing 100 μM ascorbic acid and 10 μM pargyline). The assay was performed in duplicate in a 96-well plate. Serial dilutions of test compounds were made using the Biomek 2000 robotics system. […] Nonspecific binding was determined with 1.0 μM dihydroergotamine. The plates were incubated at room temperature for 60 minutes and then filtered through polyethylenimine-soaked (0.05%) “A” filtermats on a Tomtec cell harvester. The filters were washed with cold 50 mM Tris buffer (pH 7.7) for 6 sec, dried, spotted with scintillation cocktail, and counted for 2 minutes after a 4 hour delay on a Wallac Betaplate 1205 liquid scintillation counter.

[5] = HEK-h5HT2A homogenate, read-out: 5-HT2A [^125I]DOI Ki (nM) ± SEM
[6] = [^3H]5HT uptake, HEK-hVMAT2 preparation, read-out: hVMAT2 5HT Uptake IC50 (nM) ± SEM
[7] = HEK-hVMAT2 membranes, series 5 ligands tested as hydrochloride salts
[8] = cells printed in μM under a head in nM
[9] = cells printed in μM under a head in nM, read-out: 5-HT2A [^125I]DOI Ki (nM) ± SEM
[10] = cells printed in μM under a head in nM, HEK-hVMAT2 membranes
[11] = cells printed in μM under a head in nM, read-out: hVMAT2 5HT Uptake IC50 (nM) ± SEM

T1 sequence (P28223 whole entry): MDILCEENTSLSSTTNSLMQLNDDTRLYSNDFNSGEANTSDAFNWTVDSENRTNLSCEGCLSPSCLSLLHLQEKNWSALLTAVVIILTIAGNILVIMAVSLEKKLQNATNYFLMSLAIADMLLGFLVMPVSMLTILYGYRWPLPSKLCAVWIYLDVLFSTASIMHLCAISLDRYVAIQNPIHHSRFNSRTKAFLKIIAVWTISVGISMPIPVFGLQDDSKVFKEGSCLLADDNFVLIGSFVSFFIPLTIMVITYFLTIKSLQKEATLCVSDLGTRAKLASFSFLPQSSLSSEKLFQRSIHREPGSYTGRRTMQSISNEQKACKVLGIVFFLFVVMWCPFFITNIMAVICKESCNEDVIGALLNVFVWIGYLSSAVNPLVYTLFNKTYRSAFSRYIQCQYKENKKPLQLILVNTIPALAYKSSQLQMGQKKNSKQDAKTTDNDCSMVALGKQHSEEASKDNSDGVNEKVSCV

Ki [1, 9]: > 2000 nM
Ki [4, 8]: > 9 µM
Compound: CCOC(=O)[C@@H]1CN(CCn2c(=O)[nH]c3ccccc3c2=O)CC[C@@H]1c1ccc(F)cc1 (racemic) [Compound 5d, (±) syn-ethyl 1-(2-(2,4-dioxo-1,2-dihydroquinazolin-3(4H)-yl)ethyl)-4-(4-fluorophenyl)piperidine-3-carboxylate]

IC50 [2, 6]: 89 ± 12 nM
Ki [3, 10]: > 9 µM
Ki [4, 8]: > 10 µM
melting point: 101.2 to 102.5 °C
Compound: CCOC(=O)[C@@H]1CN(CCn2c(=O)c3ccccc3n(C)c2=O)CC[C@@H]1c1cccc(F)c1 (racemic) [Compound 6d, (±)-syn Ethyl 4-(3-fluorophenyl)-1-(2-(1-methyl-2,4-dioxo-1,2-dihydroquinazolin-3(4H)-yl)ethyl)piperidine-3-carboxylate]

Ki [1, 9]: > 10000 nM
Ki [4, 8]: > 10 µM
Compound: CCOC(=O)c1ccc([C@H]2CCN(CCn3c(=O)[nH]c4ccccc4c3=O)C[C@H]2C(=O)OCC)cc1 (racemic) [Compound 5l, (±) syn-ethyl 1-(2-(2,4-dioxo-1,2-dihydroquinazolin-3(4H)-yl)ethyl)-4-(4-(ethoxycarbonyl)phenyl)piperidine-3-carboxylate]

IC50 [2, 6]: 342 ± 103 nM
Ki [3, 10]: > 10 µM
melting point: 153.5 to 156.5 °C
Compound: CCOC(=O)[C@@H]1CN(CCn2c(=O)[nH]c3sccc3c2=O)CC[C@@H]1c1cccc(C(F)(F)F)c1 (relative stereo) [Compound 7d, syn-ethyl 1-(2-(2,4-dioxo-1,2-dihydrothieno[2,3-d]pyrimidin-3(4H)-yl)ethyl)-4-(3-(trifluoromethyl)phenyl)piperidine-3-carboxylate]

The remaining lines, values behind:

Compound: CC1CN(CCn2c(=O)[nH]c3ccccc3c2=O)CCC1C(=O)c1ccc(F)cc1 (racemic) [R1=H, R2=α/β-CH3]
Ki [1, 5]: 45.9 ± 12.4 nM
IC50 [2, 6]: 333 ± 106 nM
Ki [3, 7]: 0.276 ± 0.024 µM
Ki [4, 8]: > 10 µM

Compound: CCOC(=O)[C@H]1CN(CCCn2c(=O)[nH]c3ccccc3c2=O)CC[C@H]1c1ccc(F)cc1 (racemic) [n=2, (±)-syn-Ethyl 1-(3-(2,4-dioxo-1,2-dihydroquinazolin-3(4H)-yl)propyl)-4-(4-fluorophenyl)piperidine-3-carboxylate]
IC50 [2]: 43 ± 4 nM
Ki [3]: > 10 µM
Ki [4, 8]: > 10 µM
melting point: 171.8 to 172.4 °C

Compound: CCOC(=O)[C@@H]1CN(CCn2c(=O)[nH]c3ccccc3c2=O)CC[C@@H]1c1cccc(C(F)(F)F)c1 (racemic) [Compound 5g, (±) syn-ethyl 1-(2-(2,4-dioxo-1,2-dihydroquinazolin-3(4H)-yl)ethyl)-4-(3-(trifluoromethyl)phenyl)piperidine-3-carboxylate]
Ki [1, 9]: > 10000 nM
IC50 [2, 6]: 166 ± 6 nM
Ki [3, 10]: > 10 µM
Ki [4, 8]: > 10 µM

Compound: CCOC(=O)[C@@H]1CN(CCn2c(=O)[nH]c3ccccc3c2=O)CC[C@@H]1c1ccccc1 (racemic) [Compound 5a, (±) syn-ethyl 1-(2-(2,4-dioxo-1,2-dihydroquinazolin-3(4H)-yl)ethyl)-4-phenylpiperidine-3-carboxylate]
Ki [1, 5]: 37.3 ± 8.5 nM
IC50 [2, 6]: 17 nM
Ki [3]: 1.17 ± 0.314 µM
Ki [4, 8]: > 10 µM

Compound: CCOC(=O)[C@@H]1CN(CCn2c(=O)[nH]c3ccccc3c2=O)CC[C@@H]1c1ccc(C(F)(F)F)cc1 (racemic) [Compound 5f, (±) syn-ethyl 1-(2-(2,4-dioxo-1,2-dihydroquinazolin-3(4H)-yl)ethyl)-4-(4-(trifluoromethyl)phenyl)piperidine-3-carboxylate]
Ki [1, 9]: > 10000 nM
IC50 [2, 6]: 416 ± 43 nM
Ki [3, 10]: > 10 µM
Ki [4, 8]: > 10 µM

Compound: O=C(c1ccc(F)cc1)C1CCN(CCn2c(=O)[nH]c3ccc(Br)cc3c2=O)CC1 [R1=Br, R2=H]
Ki [1, 5]: 0.8 ± 0.24 nM
IC50 [2, 11]: > 2000 nM
Ki [3, 10]: > 3 µM
Ki [4, 8]: > 2 µM

Compound: CCOC(=O)C1=C(c2ccccc2)CCN(CCn2c(=O)[nH]c3ccccc3c2=O)C1 [R1=CO2-Et, 3,4-bond=ene]
Ki [1]: 81 ± 26 nM
IC50 [2]: 66 ± 15 nM
Ki ([3]; read-out: hVMAT2 [^3H]DTBZ Ki (nM) ± SEM): 0.874 ± 0.276 µM
Ki ([4]; HEK-h5HT1A homogenate): > 0.0063 µM

Compound: CCOC(=O)[C@H]1CN(CCn2c(=O)[nH]c3ccccc3c2=O)CC[C@H]1c1cccc(N(C)C)c1 (racemic) [Compound 5aa, (±)-syn-Ethyl 4-(3-(dimethylamino)phenyl)-1-(2-(2,4-dioxo-1,2-dihydroquinazolin-3(4H),-yl)ethyl) piperidine-3-carboxylate]
Ki [1, 9]: > 10000 nM
IC50 [2, 11]: > 5000 nM
Ki [3, 10]: > 10 µM
Ki [4, 8]: > 10 µM

Compound: CCOC(=O)[C@@H]1CN(CCn2c(=O)[nH]c3ccccc3c2=O)CC[C@@H]1c1ccc(C(C)O)cc1 (mixture of isomers) [Compound 5p, (±) syn-ethyl 1-(2-(2,4-dioxo-1,2-dihydroquinazolin-3(4H)-yl)ethyl)-4-(4-(1-hydroxyethyl)phenyl)piperidine-3-carboxylate]
Ki [1, 9]: > 10000 nM
IC50 [2, 11]: > 8000 nM
Ki [3, 10]: > 9 µM
Ki [4, 8]: > 10 µM
melting point: 187 to 188 °C

Compound: CC1CN(CCn2c(=O)[nH]c3ccccc3c2=O)CCC1C(=O)c1ccc(F)cc1 (single isomer, unassigned) [R1=H, R2=α-CH3]
Ki [1, 5]: 19.8 ± 5.8 nM
IC50 [2, 11]: > 7300 nM
Ki [3, 10]: > 6.4 µM
Ki [4, 8]: > 5 µM

Compound: O=c1[nH]c2ccccc2c(=O)n1CCN1CC=C(c2ccccc2)CC1 [R1=H, 3,4-bond=ene]
Ki [1, 5]: 139 ± 27 nM
IC50 [2]: 3.9 ± 0.5 nM
Ki [3, 7]: 0.821 ± 0.197 µM
Ki ([4]; HEK-h5HT1A homogenate): 0.197 ± 0.015 µM

Compound: CCOC(=O)[C@@H]1CN(CCn2c(=O)[nH]c3ccccc3c2=O)CC[C@@H]1c1ccc(C)cc1 (racemic) [Compound 5b, (±) syn-ethyl 1-(2-(2,4-dioxo-1,2-dihydroquinazolin-3(4H)-yl)ethyl)-4-(p-tolyl)piperidine-3-carboxylate]
Ki [1, 9]: > 10000 nM
IC50 [2, 6]: 313 ± 54 nM
Ki [3, 10]: > 9 µM
Ki [4, 8]: > 10 µM
